What was measured:
Hydra cell aggregates = assay: Hydra cell aggregate development / morphogenesis blocking; type: cell-based, Hydra vulgarie; conditions: 10 μM, Time 0 to 96 hr
Method: All experiments utilized Hydra vulgarie (previously named Hydra attenuata). Animals were cultured as described previously (Sarras et al., 1991a, supra) and were not fed for 24 hr prior to use.
Hydra cell aggregates were prepared according to Gierer et al., (1972, supra) with modification described by Sans et al., (1993, supra). They were incubated either in microtiter plates (NUNS, Denmark) with one aggregate/well/10 μl incubation solution or in 96-well plates (Falcon) with three to five aggregates/well/50 μl incubation solution. Antibiotics were used throughout all steps of aggregate preparation to assure that the aggregates used in this study were free of any symbionic bacterial populations (Sarra et al., 1993, supra). […] By 24 hr of cell pellet formation, hydra cell aggregates develop septate junctions between epithelial cells (Wood et at., 1980. J. Ultrastruc. Res. 70:104-117). These junctions prevent the introduction of macromolecules from medium into mesoglea. […]
Criteria for morphogenesis was as follows. […] The percentage of aggregates-with head and tentacle structures at 96 hr of development was calculated and data for each group from different experiments were pooled and plotted. […] Using an ANOVA statistical test, a P value <0.05 was taken as the level of significant difference in all groups analyzed. […]

hydra cells = assay: Inhibition of DNA synthesis in hydra cell aggregates; type: cell-based, Hydra vulgarie; conditions: 10 μM, Time 0 to 96 hr

**Q.** With `NC(=O)NO` [HU, hydroxyurea] as the compound, how does the “morphogenesis of hydra cell aggregates” value (Hydra cell aggregates) read?
**A.** The value was “did not inhibit”.

**Q.** And the DNA synthesis (hydra cells)?
**A.** The DNA synthesis was “completely blocked”.
